Common to all, as to format: in vivo
One series relates to Echinochloa crus-galli. Description: Paddy herbicidal activity test. The settings on record: irrigated paddy pot, treated at 3.5 leaf stage of Echinochloa crus-galli, 30 days. The method, then: (§1) 1. Paddy Herbicidal Activity Test
(§2) Rice paddy soil was filled into a 1/10000 are pot followed by the addition of suitable amounts of water and chemical fertilizer, kneading, seeding with Echinochloa crus-galli, Monochoria vaginalis and Scirpus juncoides and maintaining in an irrigated state at a water depth of 3 cm.
(§3) Wettable powder of Target Compound (I) shown in Table 1 prepared in compliance with the preparation examples were diluted with a suitable amount of water, rice plants in the 2.0 leaf stage were transplanted during 3.5 leaf stage of Echinochloa crus-galli, and treated by dropping in chemical in the prescribed amount per are using a pipette.
(§4) After treating for 30 days in a glass greenhouse at an average atmospheric temperature of 30° C., the herbicidal efficacy thereof was investigated.
(§5) Evaluation of herbicidal efficacy was carried out by comparing growth inhibition rate (%) with an untreated group, while evaluation of phytotoxicity was carried out by comparing growth inhibition rate (%) with the state of a complete eradication group, and were evaluated at 11 levels indicated below.

The test system of another series is Monochoria vaginalis. The experiment in a line: Paddy herbicidal activity test. The settings on record: irrigated paddy pot, 30 days. The method, then: as §1, §2, §3, §4, §5
The test system of the next series is Scirpus juncoides. Description: Paddy herbicidal activity test. The settings on record: irrigated paddy pot, 30 days. The method, then:
as §1, §2, §3, §4, §5

In another series the test system is Rice plants. The experiment in a line: Paddy herbicidal activity test, phytotoxicity to transplanted rice. The settings on record: rice transplanted in 2.0 leaf stage, 30 days. The method, then: as §1, §2, §3, §4, §5
The subject of series [1] is Amaranthus retroflexus. The experiment in a line: Farming soil treatment test. The settings on record: soil surface spray prior to weed growth, 30 days. The method, then:
(§6) 2. Farming Soil Treatment Test
(§7) Field soil was filled into a 1/6000 are pot followed by seeding with Digitaria ciliaris, Chenopodium album and Amaranthus retroflexus and covering with soil.
(§8) Wettable powder of compounds of formula (D shown in Table 1 prepared in compliance with the preparation examples were diluted with water to the prescribed amount of chemical and uniformly sprayed onto each soil surface layer using 10 liters of sprayed water per are prior to weed growth following seeding.
as §4
(§9) Evaluation of herbicidal efficacy was carried out in the same manner as the above-mentioned Test Example 1.

Series [2] relates to Chenopodium album. Description: Farming soil treatment test. The settings on record: soil surface spray prior to weed growth, 30 days. As to the method: as §6, §7, §8, §4, §9
Series [3] concerns Digitaria ciliaris. The experiment in a line: Farming soil treatment test. The settings on record: soil surface spray prior to weed growth, 30 days. As to the method: as §6, §7, §8, §4, §9
The subject of series [4] is Amaranthus retroflexus. Description: Weed foliar treatment test. The settings on record: foliar spray, 3 weeks. The method, then:
(§10) 3. Weed Foliar Treatment Test
(§11) Soil was filled into a 1/6000 are pot followed by seeding with Digitaria ciliaris, Chenopodium album and Amaranthus retroflexus, covering with soil, and cultivating in a glass greenhouse at an average atmospheric temperature of 25° C.
(§12) Wettable powder of Target Compound (I) shown in Table 1 prepared in compliance with the preparation examples were diluted with water to the prescribed amount of chemical and uniformly sprayed onto the weeds using 15 liters of sprayed water per are when Digitaria ciliaris had grown to the 1.0 to 2.0 leaf stage.
(§13) After treating for 3 weeks in a glass greenhouse at an average atmospheric temperature of 25° C., the herbicidal efficacy thereof was investigated.
as §9

For series [5], the system named is Chenopodium album. Description: Weed foliar treatment test. The settings on record: foliar spray, 3 weeks. As to the method:
as §10, §11, §12, §13, §9

Series [6] deals with Digitaria ciliaris. The experiment in a line: Weed foliar treatment test. The settings on record: foliar spray at 1.0 to 2.0 leaf stage of Digitaria ciliaris, 3 weeks. The method, then:
as §10, §11, §12, §13, §9

As to `N#Cc1cnn(-c2nn3c(c2Cl)CCCC3)c1NCCCl` [Control agent 4.92], the “herbicidal efficacy (growth inhibition rate level) Echinochloa crus-galli” value with Echinochloa crus-galli (1g a.i./10a) is recorded as 1 (10% to less than 20%); with Echinochloa crus-galli (5g a.i./10a), 2 (20% to less than 30%). The “herbicidal efficacy (growth inhibition rate level) Monochoria vaginalis” value in the series on Monochoria vaginalis (1g a.i./10a) is recorded as 0 (0 (exponent): 0% to less than 10% (growth inhibition rate)); with Monochoria vaginalis (5g a.i./10a) it was 1 (10% to less than 20%). Moreover, the entries for the “herbicidal efficacy (growth inhibition rate level) Scirpus juncoides” value with Scirpus juncoides (1g a.i./10a) and in the series on Scirpus juncoides (5g a.i./10a) were 2 (20% to less than 30%) and 4 (40% to less than 50%), respectively. Also, the results for the “phytotoxicity (growth inhibition rate level) Rice plants” value in the series on Rice plants (1g a.i./10a) and in the series on Rice plants (5g a.i./10a) were 0 (0 (exponent): 0% to less than 10% (growth inhibition rate)) and 1 (10% to less than 20%), respectively. Further, the “herbicidal efficacy (growth inhibition rate level) Amaranthus retroflexus” value with Amaranthus retroflexus [1] (5g a.i./10a) is 3 (30% to less than 40%); with Amaranthus retroflexus [1] (10g a.i./10a), 4 (40% to less than 50%); with Amaranthus retroflexus [4] (5g a.i./10a) it was 4 (40% to less than 50%); in the series with Amaranthus retroflexus [4] (10g a.i./10a) it was 5 (50% to less than 60%). In addition, the “herbicidal efficacy (growth inhibition rate level) Chenopodium album” value is on record as 4 (40% to less than 50%) in the series on Chenopodium album [2] (5g a.i./10a), 5 (50% to less than 60%) in the series with Chenopodium album [2] (10g a.i./10a), 3 (30% to less than 40%) in the series on Chenopodium album [5] (5g a.i./10a) and 6 (60% to less than 70%) in the series with Chenopodium album [5] (10g a.i./10a). Moreover, the “herbicidal efficacy (growth inhibition rate level) Digitaria ciliaris” value with Digitaria ciliaris [3] (5g a.i./10a) was 2 (20% to less than 30%); with Digitaria ciliaris [3] (10g a.i./10a), 3 (30% to less than 40%); in the series on Digitaria ciliaris [6] (5g a.i./10a), 4 (40% to less than 50%); in the series on Digitaria ciliaris [6] (10g a.i./10a), 5 (50% to less than 60%).

On to `N#Cc1cnn(-c2nn3c(c2Cl)CCCC3)c1NC(=O)C(F)(F)F` [Control agent 4.185], for which the “herbicidal efficacy (growth inhibition rate level) Echinochloa crus-galli” value with Echinochloa crus-galli (1g a.i./10a) is 2 (20% to less than 30%); with Echinochloa crus-galli (5g a.i./10a) it was 4 (40% to less than 50%). In addition, the “herbicidal efficacy (growth inhibition rate level) Monochoria vaginalis” value in the series with Monochoria vaginalis (1g a.i./10a) and in the series with Monochoria vaginalis (5g a.i./10a) was 0 (0 (exponent): 0% to less than 10% (growth inhibition rate)) each time. The “herbicidal efficacy (growth inhibition rate level) Scirpus juncoides” value was 5 (50% to less than 60%) in the series with Scirpus juncoides (1g a.i./10a) and 6 (60% to less than 70%) in the series on Scirpus juncoides (5g a.i./10a). Also, the “phytotoxicity (growth inhibition rate level) Rice plants” value with Rice plants (1g a.i./10a) and in the series on Rice plants (5g a.i./10a) was 2 (20% to less than 30%) throughout. In addition, the “herbicidal efficacy (growth inhibition rate level) Amaranthus retroflexus” value is 5 (50% to less than 60%) in the series on Amaranthus retroflexus [1] (5g a.i./10a), 6 (60% to less than 70%) in the series with Amaranthus retroflexus [1] (10g a.i./10a), 6 (60% to less than 70%) in the series with Amaranthus retroflexus [4] (5g a.i./10a) and 6 (60% to less than 70%) in the series on Amaranthus retroflexus [4] (10g a.i./10a). Further, the “herbicidal efficacy (growth inhibition rate level) Chenopodium album” value in the series with Chenopodium album [2] (5g a.i./10a) is reported as 4 (40% to less than 50%); in the series on Chenopodium album [2] (10g a.i./10a) it was 5 (50% to less than 60%); in the series on Chenopodium album [5] (5g a.i./10a), 5 (50% to less than 60%); in the series with Chenopodium album [5] (10g a.i./10a), 6 (60% to less than 70%). The “herbicidal efficacy (growth inhibition rate level) Digitaria ciliaris” value is 3 (30% to less than 40%) in the series on Digitaria ciliaris [3] (5g a.i./10a), 5 (50% to less than 60%) in the series with Digitaria ciliaris [3] (10g a.i./10a), 4 (40% to less than 50%) in the series with Digitaria ciliaris [6] (5g a.i./10a) and 6 (60% to less than 70%) in the series with Digitaria ciliaris [6] (10g a.i./10a).

These data come from patent publication US9518061B2, “Substituted pyrazolylpyrazole derivative and use of same as herbicide” (KYOYU AGRI CO., LTD., priority 2013, dated 2016).
